Results published in paper PMC9856072, “Complexed Crystal Structure of the Dihydroorotase Domain of Human CAD Protein with the Anticancer Drug 5-Fluorouracil” (Biomolecules, 2023).
Residue numbers refer to the chain shown, from its start.

What was measured:
Type in all cases: binding
[1] = molecular target: T1, dihydroorotase domain of human CAD (huDHOase) (Homo sapiens, UniProt P27708); test: co-crystal structure ([…] Å)
T1 construct: residues 1456–1846 in human CAD protein, C-terminal His tag
T1 sequence (P27708 1456-1846): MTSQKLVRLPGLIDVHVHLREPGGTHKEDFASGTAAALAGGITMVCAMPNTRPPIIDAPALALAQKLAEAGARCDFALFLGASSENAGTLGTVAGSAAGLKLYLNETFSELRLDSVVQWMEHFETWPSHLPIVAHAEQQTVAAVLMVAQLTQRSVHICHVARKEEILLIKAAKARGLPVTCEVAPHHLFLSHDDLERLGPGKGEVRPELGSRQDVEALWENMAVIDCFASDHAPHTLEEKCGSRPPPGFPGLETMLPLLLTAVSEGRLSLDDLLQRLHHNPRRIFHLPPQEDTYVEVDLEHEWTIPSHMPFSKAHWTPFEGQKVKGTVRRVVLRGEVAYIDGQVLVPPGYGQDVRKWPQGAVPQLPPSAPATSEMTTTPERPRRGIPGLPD

[2] = molecular target: T2, dihydroorotase domain of human CAD (huDHOase) (Homo sapiens, UniProt P27708, T1562A); test: intrinsic fluorescence quenching titration
T2 construct: residues 1456–1846 in human CAD protein, C-terminal His tag
T2 sequence (P27708 1456-1846 T1562A): T1 sequence (P27708 1456-1846) with T107A

[3] = molecular target: T1, dihydroorotase domain of human CAD (huDHOase); test: co-crystal structure ([…] Å) and intrinsic fluorescence quenching
[4] = molecular target: T3, dihydroorotase domain of human CAD (huDHOase) (Homo sapiens, UniProt P27708, R1475A); test: intrinsic fluorescence quenching titration
T3 construct: residues 1456–1846 in human CAD protein, C-terminal His tag
T3 sequence (P27708 1456-1846 R1475A): T1 sequence (P27708 1456-1846) with R20A

| SMILES | co-crystal structure (1.64 Å) [1] | Kd [2] | Kd [3] | Kd [4] |
| --- | --- | --- | --- | --- |
| O=C(O)CC(O)C(=O)O (stereo not shown) [malate] | This complexed structure revealed that malate is bound at the active site of huDHOase | – | – | – |
| O=c1[nH]cc(F)c(=O)[nH]1 [5-FU, 5-fluorouracil] | – | 146 ± 2.1 µM | 91.2 ± 1.7 µM | 161.5 ± 1.6 µM |
